As a reminder, the IC50 is the concentration that inhibits the measured activity by half.

The conditions of data set [1]: PAMPA-BBB literature value ref 38; cited from earlier work. (PAMPA measures passive passage across an artificial lipid membrane.)
Data set [2] deals with SD rats. In words: Open field locomotor activity. Particulars: ig. 32 mg/kg/day, days 2–15, vs untreated rats. Format: in vivo, rat. The method, then: The detailed procedures were performed according to our previous studies. In brief, each SD rat was placed at the center of the open field (50 × 50 cm^2 chamber, 50-cm-high walls, with a 25 cm^2 area in the middle of floor defined as the central square) for 6 min in a quiet room. The animals were gently placed in the center of the platform and were allowed to explore the surroundings. A camera was installed above the center of the field. Immediately after a rat was placed at the center in the open field, the movements and position of the animals were recorded and registered automatically by computerized system. Next test was performed after cleaning the chamber. The traveled tracks of rats were recorded for 6 minutes and the videos of the last 4 minutes were analyzed also by Xeye Animal behavior analysis system.

The test system of data set [3] is SD rats. The data set is described as follows: Forced swim test. Format: in vivo, rat. The note with it: ig. 32 mg/kg/day, days 2–15. As to the method: The detailed procedures were performed according to our previous studies. Briefly, each SD rat was placed in a vertical Plexiglas cylinder (height 50 cm; diameter 20 cm) containing 18 cm height of water at 25 ± 2 °C and was forced to swim individually for 15 min on1st day. From 2nd day to 15th day, the rats were intragastrically administered compound 6a-1 or control drugs at dosage of 32 mg/kg/day. On the 2nd day and 15th day, 30 minutes after drug treatment, each rat was placed again into water and forced to swim for 6 min. The rat behavior was recorded by a video camera placed directly facing cylinders. The duration of immobility during the last 4 minutes was analyzed by Xeye Animal behavior analysis system (Xeye Aba V3.2). The rat was considered as immobile when its moving speed was less than 20 mm/s. The dosage of is 32 mg/kg every day. The water in the cylinder was changed each trial. After each exposure, animals were partially dried with a towel and returned to their home cages. All tests were performed in a quiet room.

In data set [4] the test system is corticosterone-injured PC12 cells. In words: Intracellular calcium ion concentration analysis (Fura-2 AM). Format: cell-based, rat. The note with it: 200 µM corticosterone and 5 µM drug. As to the method: The detailed procedures were performed according to the reported literatures. In brief, calcium ion concentration was measured by Fura-2 AM (Thermo Scientific). PC12 cells were treated with compound 6a-1 for 48 hours. Then cells were detached with 0.25% trypsin and centrifuged at 1000 r/min for 5 minutes. The supernatant was removed and the cells were stained with Fura-2 AM according to the manufacturer’s instructions. Fluorescence intensity of labeled cells was photographed for 25 random sights each group using Thermo Scientific Array Scan Infinity.
For orientation: Calcium flux is commonly read through the fluorescence of an indicator in the cells.

In data set [5] the test system is corticosterone injured PC12 cells. In words: Real-time PCR BDNF mRNA level. Particulars: 200 µM corticosterone and 5 µM drug. Type of data set: cell-based, rat. (In general: Quantitative PCR measures a nucleic acid by following its amplification.)
Another data set deals with T1, 5-HT2C receptor (Homo sapiens, UniProt P28335).
T1 sequence (P28335 33-458): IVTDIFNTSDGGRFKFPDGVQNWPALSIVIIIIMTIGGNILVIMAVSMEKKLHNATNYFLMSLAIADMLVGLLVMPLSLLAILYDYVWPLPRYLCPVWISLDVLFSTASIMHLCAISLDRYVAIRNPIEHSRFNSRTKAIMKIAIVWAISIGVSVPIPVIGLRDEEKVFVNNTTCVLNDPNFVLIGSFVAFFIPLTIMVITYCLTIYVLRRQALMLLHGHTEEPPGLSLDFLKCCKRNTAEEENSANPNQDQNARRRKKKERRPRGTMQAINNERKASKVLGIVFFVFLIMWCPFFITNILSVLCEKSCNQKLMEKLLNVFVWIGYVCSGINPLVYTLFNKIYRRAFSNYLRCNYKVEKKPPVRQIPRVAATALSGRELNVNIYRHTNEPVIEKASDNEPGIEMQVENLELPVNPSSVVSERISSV
The data set is described as follows: FLIPR assay for 5-HT2C antagonism. Type of data set: cell-based.

Data set [6] concerns corticosterone-injured PC12 cells. In words: Protective effects on corticosterone-injured PC12 cells (MTT). Format: cell-based, rat. More on the design: key to PR (protection rate), Table S1: compounds did not shown protection effects on corticosterone-injured PC12 cells. Particulars: 1.25µM, 24 h after treatment. The procedure, abridged:
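PC12 cells seeded at 1 × 10^5 per well and grown 24 h in DMEM with 5% horse serum and 10% FBS, then incubated with compounds. Viability by MTT (2–4 h, 37 °C), formazan dissolved in DMSO, absorbance at 570 nm; protective rate calculated from absorbance.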

The test system of the next data set is HEK293 cells. In words: Cytotoxicity on HEK293 cells (MTT). Type of data set: cell-based, human. Particulars: Homo sapiens, HEK293, 100μM, after treatment; read-out: IR (inhibitory rate) HEK293. The procedure, abridged:
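HEK293 human embryonic kidney cells were plated in 96-well plates at 4 × 10^3 cells per well and grown in 1640 or DMEM medium containing 10% fetal bovine serum, penicillin (100 unit/ml) and streptomycin (100 μg/ml) for 24 h at 5% CO2 in a humidified incubator. Compound cytotoxicity was then determined using the MTT method.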

The next data set concerns L02 cells. The data set is described as follows: Cytotoxicity on L02 cells (MTT). Type of data set: cell-based, human. Particulars: Homo sapiens, L02, 100μM, after treatment; read-out: IR (inhibitory rate) L02. A digest of the protocol:
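Human normal hepatic L02 cells were plated in 96-well plates at 4 × 10^3 cells per well and grown for 24 h in 1640 or DMEM medium containing 10% fetal bovine serum, penicillin (100 unit/ml) and streptomycin (100 μg/ml), in a humidified 5% CO2 incubator. Cytotoxicity was then assessed using the MTT method.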

The subject of another data set is H9C2 cells. In words: Cytotoxicity on H9C2 cells (MTT). The note with it: Rattus norvegicus, 48 h. Format: cell-based. The method, then: Human normal hepatic L02 cells, human embryonic kidney cell line 293 cells (HEK293) and Rattus myoblast cell line H9C2 cells were respectively seeded in 96-well plates at a density of 4 × 10^3 cells per well and cultured in the 1640 or DMEM medium, with the supplement of 10% fetal bovine serum, penicillin (100 unit/ml), streptomycin (100 μg/ml) in a humidified incubator with 5% CO2 for 24 h. After adherence, L02, HEK293 and H9C2 cells were exposed to different compounds for another 48 h. The cytotoxicities of the compounds were evaluated by MTT method.

Procedure for 5-HT2C receptor: Seed cells at the density of 10 K cell/well, 37 °C, 5% CO2 incubate for 16–24 hours, then loading cells with 30 ul of Calcium 5 and 37 °C, 5% CO2 incubate for 1 hour. After transfer compound to compound plate with 30 ul Assay Buffer by Echo, add 15 ul/well of compound, incubate for 10 mins.

As for `CN1C(C(=O)Nc2ccccn2)=C(O)c2ccccc2S1(=O)=O` [Piroxicam], the “Pe, Lit.” value in data set [1] is 2.5 *10^−6 cm/s.

For the compound `Cn1c(=O)c2[nH]cnc2n(C)c1=O` [Theophylline], in data set [1], the “Pe, Lit.” value is 0.12 *10^−6 cm/s.

For `CNCCC(Oc1ccc(C(F)(F)F)cc1)c1ccccc1` (stereo not shown) [Fluoxetine], in the data set on SD rats [2], the improved travelled distance was 69.8%. Further, the “mean immobility time reduced compared to the model group” value in the data set on SD rats [3] was 50.7%. Further, the “fluorescence intensity of free intracellular calcium ion” value in data set [4] was “weaker fluorescence intensity than corticosterone-injured PC12 cells”. The “BDNF mRNA level increase compared with corticosterone-injured group” value in [5] is given as 32.1%.

In turn, `CC[C@@H](CO)NC(=O)[C@@H]1C=C2c3cccc4c3c(cn4C)C[C@H]2N(C)C1` [Methysergide] had a 50% inhibitory concentration (IC50) against 5-HT2C receptor of 25 nM. Moreover, the inhibition at 100 µM at 5-HT2C receptor (read-out: Inhibition 5-HT2C) came to 101%.

Consider `O=C1Nc2ccc(Cl)cc2C(c2ccccc2)=NC1O` (stereo not shown) [Oxazepam], for which, in data set [1], the “Pe, Lit.” value was 10 *10^−6 cm/s.

Regarding `COc1ccc2c(c1)C(CCNC(=O)C(F)(F)F)=NCC2` [6a-3, 2,2,2-Trifluoro-N-(2-(7-methoxy-3,4-dihydroisoquinolin-1-yl)ethyl) acetamideoxalate], in data set [6], the “PR (protection rate), Table S1” value is reported as “-^b”. Moreover, the inhibition at 100 µM stood at 60.1% in the data set with HEK293 cells and 59.6% in the data set with L02 cells.

Take `COc1ccc2c(c1)C(CCNC(=O)c1cncc(Br)c1)=NCC2.O=C(O)C(=O)O` [6a-29, 5-Bromo-N-(2-(7-methoxy-3,4-dihydroisoquinolin-1-yl)ethyl)nicotinamide oxalate]: the “PR (protection rate), Table S1” value in data set [6] was “-”. The inhibition at 100 µM turned out to be 29.5% in the data set with HEK293 cells and 14.4% in the data set on L02 cells.

`COc1ccc(C(=O)NCCC2=NCCc3ccc(OC)cc32)cc1` [6a-6, 4-Methoxy-N-(2-(7-methoxy-3,4-dihydroisoquinolin-1-yl)ethyl) benzamideoxalate]: the “PR (protection rate), Table S1” value in data set [6] is given as “-”. Further, the results for the inhibition at 100 µM in the data set on HEK293 cells and in the data set with L02 cells were 34.1% and 24.9%, respectively.

With `COc1cccc2c1C(=O)c1c(O)c3c(c(O)c1C2=O)C[C@@](O)(C(=O)CO)C[C@@H]3O[C@H]1C[C@H](N)[C@H](O)[C@H](C)O1` [Adriamycin], the midpoint of inhibition with H9C2 cells, the IC50, lay at 160 ± 20 nM.

On to `COc1ccc2c(c1)C(CCNC(=O)C1CC1)=NCC2` [6a-4, N-(2-(7-Methoxy-3,4-dihydroisoquinolin-1-yl)ethyl) cyclopropanecarboxamideoxalate], for which the “PR (protection rate), Table S1” value in [6] is listed as “-”. Also, the inhibition at 100 µM with HEK293 cells is 46.2%; with L02 cells, < 0%.

On to `COc1ccc2c(c1)C(CCNC(=O)Nc1c(C)cc(C#N)cc1C)=NCC2.O=C(O)C(=O)O` [6b-6, 1-(4-Cyano-2,6-dimethylphenyl)-3-(2-(7-methoxy-3,4-dihydroisoquinolin-1-yl)ethyl)urea oxalate], for which the “PR (protection rate), Table S1” value in [6] is “-”. Further, the inhibition at 100 µM in the data set on HEK293 cells and in the data set on L02 cells was < 20% each time.

In the case of `COc1ccc2c(c1)C(CCNC(=O)Nc1ncccc1Br)=NCC2.O=C(O)C(=O)O` [6b-22, 1-(3-Bromopyridin-2-yl)-3-(2-(7-methoxy-3,4-dihydroisoquinolin-1-yl)ethyl)urea oxalate], the “PR (protection rate), Table S1” value in [6] is recorded as “-”. Further, the inhibition at 100 µM in the data set with HEK293 cells was 46.4%; in the data set on L02 cells, 48.5%.

The record behind these values is paper PMC5048153 (Scientific Reports, 2016).
